Consider 20 molecules from patent publication US20250376469A1, “INDOLIZINE DERIVATIVES FOR TREATING TRPM3-MEDIATED DISORDERS” (Katholieke Universiteit Leuven, priority 2022, published 2025).

The test deals with T1, mouse TRPM3α2 (mTRPM3) ion channel (Mus musculus, UniProt J9SQF3).
T1 construct: expressed in transfected cells; host or cells: flip-in HEK293
As to the kind of experiment: TRPM3 ion channel driven Ca2+ uptake (Fluo-4 AM assay, pregnenolone sulfate stimulated). Format: cell-based. The following applies: TRPM3 overexpressing flip-in HEK293 cells, channel opened with pregnenolone sulfate (PS) 50 μM, 2.4 mM Ca2+. How it is done: In order to monitor the inhibition of the mouse TRPM3α2 (mTRPM3) ion channel by the compounds of the invention, a cellular system making use of an mTRPM3alpha2 or hTRPM3 overexpressing cell line (flip-in HEK293) was used. The TRPM3 channel was stimulated/opened with Pregnenolone sulfate (PS) (50 μM) which results in Ca^2+ influx.
For mTRPM3, the intracellular Ca^2+ was measured with a Calcium responsive dye, Fluor-4 AM ester (Invitrogen). Cells were cultured until a confluence of 80-90%, washed with Versene (Invitrogen) and detached from the surface by a short incubation with 0.05% Trypsin (Invitrogen). The trypsination process was stopped by the addition of complete cell culture medium (DMEM, glutamax, 10% FCS, NEAA, Pen-Strep). Cells were collected and resuspended in Krebs buffer without Calcium at RT.
Prior the cell seeding (±2000 cells/well into a black, 384 well plate (Greiner)) the diluted compound was added in the assay plate, together with the PS dissolved in Krebs buffer containing Calcium. […] Directly after cell addition the plates were read on an Envision fluorescence reader (Perkin Elmer) by an Excitation of 485 nm and emission at 535 nm.
Channel inhibition was calculated compared to a non-PS stimulated control versus a condition stimulated with PS (50 μM) with vehicle. The ability of a the compounds of the invention to inhibit this activity was determined as: Percentage inhibition=[1−((RFU determined for sample with test compound present−RFU determined for sample with positive control inhibitor) divided by (RFU determined in the presence of vehicle−RFU determined for sample with positive control inhibitor))]*100.
The activities of the Example compounds […] tested are depicted in the table below. The activity ranges A, B and C refer to IC50 values in the Fluo-4 AM assay as follows: […]

T1 sequence (J9SQF3 1-1709 isoform J9SQF3-12): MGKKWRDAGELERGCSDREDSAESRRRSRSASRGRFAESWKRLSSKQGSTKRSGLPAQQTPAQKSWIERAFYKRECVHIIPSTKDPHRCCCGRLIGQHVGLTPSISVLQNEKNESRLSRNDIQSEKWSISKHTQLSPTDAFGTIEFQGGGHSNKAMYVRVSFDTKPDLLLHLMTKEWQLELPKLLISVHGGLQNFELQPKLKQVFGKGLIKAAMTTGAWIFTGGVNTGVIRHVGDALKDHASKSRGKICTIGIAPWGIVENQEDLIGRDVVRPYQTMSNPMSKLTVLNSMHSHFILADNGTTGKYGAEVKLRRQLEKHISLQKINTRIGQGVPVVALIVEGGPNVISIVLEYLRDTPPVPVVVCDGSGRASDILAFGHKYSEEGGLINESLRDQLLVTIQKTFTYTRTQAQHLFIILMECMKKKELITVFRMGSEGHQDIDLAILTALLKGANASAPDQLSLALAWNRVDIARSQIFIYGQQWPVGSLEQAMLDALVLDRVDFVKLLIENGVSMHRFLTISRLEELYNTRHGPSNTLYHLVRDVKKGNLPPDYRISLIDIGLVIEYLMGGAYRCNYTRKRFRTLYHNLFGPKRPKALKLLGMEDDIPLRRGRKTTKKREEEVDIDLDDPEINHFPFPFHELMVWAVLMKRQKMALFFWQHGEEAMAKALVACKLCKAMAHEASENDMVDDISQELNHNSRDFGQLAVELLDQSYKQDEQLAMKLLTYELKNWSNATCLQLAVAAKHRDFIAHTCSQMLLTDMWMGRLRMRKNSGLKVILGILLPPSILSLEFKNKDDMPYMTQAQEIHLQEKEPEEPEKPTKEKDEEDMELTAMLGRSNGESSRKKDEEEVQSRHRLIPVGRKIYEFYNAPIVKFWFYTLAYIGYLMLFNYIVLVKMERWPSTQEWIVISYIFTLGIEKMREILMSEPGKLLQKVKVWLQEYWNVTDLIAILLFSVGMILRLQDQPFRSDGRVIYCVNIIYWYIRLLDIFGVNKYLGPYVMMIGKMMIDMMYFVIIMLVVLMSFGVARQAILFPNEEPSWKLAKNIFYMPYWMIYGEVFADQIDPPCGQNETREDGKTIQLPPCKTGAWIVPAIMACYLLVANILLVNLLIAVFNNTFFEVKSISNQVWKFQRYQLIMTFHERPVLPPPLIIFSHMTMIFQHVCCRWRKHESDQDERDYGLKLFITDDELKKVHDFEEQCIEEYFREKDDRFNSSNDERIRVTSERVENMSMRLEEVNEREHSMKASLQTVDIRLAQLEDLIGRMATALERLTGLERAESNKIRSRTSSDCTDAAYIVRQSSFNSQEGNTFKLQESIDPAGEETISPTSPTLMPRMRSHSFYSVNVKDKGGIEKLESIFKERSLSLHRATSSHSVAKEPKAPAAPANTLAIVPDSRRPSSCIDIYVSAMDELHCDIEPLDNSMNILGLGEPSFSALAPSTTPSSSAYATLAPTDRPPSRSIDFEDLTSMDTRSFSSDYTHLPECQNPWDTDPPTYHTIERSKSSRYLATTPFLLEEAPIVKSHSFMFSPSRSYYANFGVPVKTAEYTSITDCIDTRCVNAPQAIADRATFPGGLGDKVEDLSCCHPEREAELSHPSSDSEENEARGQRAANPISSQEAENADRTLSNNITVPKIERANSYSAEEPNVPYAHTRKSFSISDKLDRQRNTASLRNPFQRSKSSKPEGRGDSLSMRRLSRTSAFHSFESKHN

Regarding `Cc1cc2ccc(OCc3ccccn3)cn2c1C(=O)NC(C)C(N)=O` (single isomer, unassigned) [Cpd 018 - En1], the IC50 is 1000 to 20000 nM. Consider `Cc1cc2ccc(OCc3cccnc3)cn2c1C(=O)NC(CO)CC(F)(F)F` (single isomer, unassigned) [Cpd 042 - En1], for which the IC50 was < 1000 nM.

`Cc1cc2ccc(OCC3CC3)cn2c1C(=O)NC1(CO)CCNC1=O` (single isomer, unassigned) [Cpd 021 - En2]: the IC50 lay in the range of 1000 to 20000 nM. Consider `Cc1cc2ccc(OCc3c(F)cnn3C)cn2c1C(=O)NC1(CO)CCNC1=O` (single isomer, unassigned) [Cpd 040 - En1], for which the IC50 is < 1000 nM. The same measure for `Cc1cc2ccc(OCc3c(F)cnn3C)cn2c1C(=O)NC1(CO)CCNC1=O` (single isomer, unassigned) [Cpd 040 - En2]: 1000 to 20000 nM. `CC(=O)C(C)NC(=O)c1c(C)cc2ccc(OCC(F)F)cn12` (single isomer, unassigned) [Cpd 028 - En2]: the IC50 is > 20000 nM.

For `CC(=O)C(C)NC(=O)c1c(C)cc2ccc(OCC(F)F)cn12` (single isomer, unassigned) [Cpd 028 - En1], the IC50 is > 20000 nM.

`Cc1cc2ccc(OCc3ccccc3F)cn2c1C(=O)NC1CNCCC1(F)F` (centres unmarked) [Cpd 008, N-(4,4-difluoropiperidin-3-yl)-6-[(2-fluorophenyl)methoxy]-2-methylindolizine-3-carboxamide] showed an IC50 of 1000 to 20000 nM. In turn, `CC(=O)C(C)NC(=O)c1c(C)cc2ccc(OCC3CC3)cn12` (single isomer, unassigned) [Cpd 023 - En2] yielded an IC50 of 1000 to 20000 nM. `Cc1cc2ccc(OCC(F)F)cn2c1C(=O)NC(C)(CO)CO` [Cpd 025, 6-(2,2-difluoroethoxy)-N-(1,3-dihydroxy-2-methylpropan-2-yl)-2-methylindolizine-3-carboxamide]: the IC50 lay within 1000 to 20000 nM. In the case of `Cc1cc2ccc(OCc3cccnc3C(F)(F)F)cn2c1C(=O)NC(CO)CC(F)(F)F` (single isomer, unassigned) [Cpd 044 - En2], the half-inhibitory concentration (IC50) was < 1000 nM.

As for `Cc1cc2ccc(OCc3ccccn3)cn2c1C(=O)NC(C)(CO)C(N)=O` (single isomer, unassigned) [Cpd 014 - En1], the IC50 is < 1000 nM. Consider `Cc1cc2ccc(OCc3cnccn3)cn2c1C(=O)NC1(CO)CCNC1=O` (single isomer, unassigned) [Cpd 046 - En1], for which the IC50 is < 1000 nM. For the molecule `COc1ncccc1COc1ccc2cc(C)c(C(=O)NC(CO)CC(F)(F)F)n2c1` (single isomer, unassigned) [Cpd 043 - En2], the IC50 is > 20000 nM. Consider `Cc1cc2ccc(OCc3cccnc3)cn2c1C(=O)NC1(CO)CCNC1=O` (single isomer, unassigned) [Cpd 037 - En1], for which the IC50 is < 1000 nM. The same measure for `COCC(C)(CO)NC(=O)c1c(C)cc2ccc(OCc3ccccn3)cn12` (single isomer, unassigned) [Cpd 032 - En1]: 1000 to 20000 nM; for `Cc1cc2ccc(OCc3ccccn3)cn2c1C(=O)NC(C)C(N)=O` (single isomer, unassigned) [Cpd 018 - En2]: 1000 to 20000 nM; for `Cc1ncc(COc2ccc3cc(C)c(C(=O)NC(C)(CO)CO)n3c2)s1` [Cpd 030, N-(1,3-dihydroxy-2-methylpropan-2-yl)-2-methyl-6-[(2-methyl-1,3-thiazol-5-yl)methoxy]indolizine-3-carboxamide]: < 1000 nM. For `Cc1cc2ccc(OCc3ccccn3)cn2c1C(=O)NC1CNCCC1(F)F` (single isomer, unassigned) [Cpd 017 - En1, N-(4,4-difluoropiperidin-3-yl)-2-methyl-6-[(pyridin-2-yl)methoxy]indolizine-3-carboxamide], the IC50 lay in the range of 1000 to 20000 nM. The same measure for `Cc1ncc(COc2ccc3cc(C)c(C(=O)NC(C)(CO)C(N)=O)n3c2)s1` (single isomer, unassigned) [Cpd 029 - En2, 3-hydroxy-2-methyl-2-({2-methyl-6-[(2-methyl-1,3-thiazol-5-yl)methoxy]indolizin-3-yl}formamido)propanamide]: 1000 to 20000 nM.

For orientation: IC50 means the concentration that gives 50% inhibition. Read a low IC50 as greater potency in that assay.
